{"source": "patent EP2600854B1", "about": "“PHENETHYL, PHENETHYLENE, PHENETHYNE AND INDANONE DERIVATES IN COSMETIC FORMULATIONS, ESPECIALLY FOR USE IN SKIN AGEING PROCESSES” (Merck Patent GmbH, priority 2010, dated 2012)", "key": {"[1]": {"assay": "Solubility comparison in the cosmetic oil isopropyl myristate", "assay_type": "physicochemical", "details": "for solubility: isopropyl myristate, organic solvent or mixture, Isopropylmyristat, read-out: Löslichkeiten", "method": "Im Parallelversuch werden 20mg der Substanz 4a mit zunächst 800µL Isopropylmyristat versetzt. […] Daraus errechnen sich Löslichkeiten für 1 a von mindestens 2,5% bzw. für 4a von maximal 1,0% bezogen auf das eingesetzte Volumen Öl. Im anschließenden Verifizierungsexperiment bei Raumtemperatur von 23°C ergeben sich Löslichkeiten von 2,4% für 1 a sowie 0,4% für 4a."}, "[2]": {"assay": "In-situ generation of 4a from 1a under sun-simulated radiation (Suntester), HPLC analysis", "assay_type": "physicochemical", "details": "5mg 1a in 10 mL Ethanol", "method": "5mg der Substanz 1 a werden in 10 mL Ethanol gelöst. Mit der Lösung wird ein NMR-Röhrchen vollständig befüllt, verschlossen und für 4 Stunden im Suntester sonnensimulierter Strahlung ausgesetzt (Atlas CPS+ Suntester, 765 Wm^-2). Nach Bestrahlung wird die Lösung per HPLC untersucht. Im Dunkelexperiment ist die Substanz 4a abwesend, während im Belichtungexperiment Substanz 4a zu 2% bei der Detektionswellenlänge von 272nm nachgewiesen wird."}, "[3]": {"details": "30°C, bezogen auf das eingesetzte Volumen Öl, calculated from 20mg in 800µL (1a) or 800µL + 1200µL (4a)"}, "[4]": {"details": "Verifizierungsexperiment bei Raumtemperatur von 23°C"}}, "note": "Like-named read-outs stand apart in the source and are kept apart here.", "data": [{"smiles": "COc1ccc2c(c1)C(c1ccc(C(C)(C)C)cc1)CC2=O", "note": "(stereo not drawn) [4a, 3-(4-tert.-Butyl-phenyl)-5-methoxy-indan-1-on]", "values": [{"measurement": "Dissolution of 20mg after addition of further 1200µL Isopropylmyristat", "setting": "[1]; 20mg, 800µL + 1200µL Isopropylmyristat", "value": "deutlicher Bodensatz in der trüben Dispersion"}, {"measurement": "Dissolution of 20mg in 800µL Isopropylmyristat", "setting": "[1]; 20mg, 30°C", "value": "keine vollständige Löslichkeit"}, {"measurement": "solubility", "setting": "[1]; [3]", "value": "≤ 10", "unit": "mg/mL"}, {"measurement": "solubility", "setting": "[1]; [4]", "value": 4, "unit": "mg/mL"}]}, {"smiles": "COc1ccc(C(=O)/C=C/c2ccc(C(C)(C)C)cc2)cc1", "note": "[1a, E-3-(4-tert.-Butyl-phenyl)-1-(4-methoxy-phenyl)-propenon]", "values": [{"measurement": "Substanz 4a nachgewiesen (HPLC) im Belichtungexperiment", "setting": "[2]; 4 Stunden sonnensimulierte Strahlung (Atlas CPS+ Suntester, 765 Wm^-2), Detektionswellenlänge 272nm", "value": 2, "unit": "%"}, {"measurement": "Substanz 4a (HPLC) im Dunkelexperiment", "setting": "[2]; no irradiation", "value": "abwesend"}, {"measurement": "Dissolution of 20mg in 800µL Isopropylmyristat", "setting": "[1]; 20mg, 30°C", "value": "vollständig gelöst"}, {"measurement": "solubility", "setting": "[1]; [3]", "value": "≥ 25", "unit": "mg/mL"}, {"measurement": "solubility", "setting": "[1]; [4]", "value": 24, "unit": "mg/mL"}]}]}
